# Reference: ChEMBL document CHEMBL5331060, “Bisindole natural products: A vital source for the development of new anticancer drugs” (Eur J Med Chem, 2022)
# Test system: A549
# Experiment: Antiproliferative activity against human A549 cells assessed as inhibition of cell growth incubated for 72 hrs by MTT assay
# Type: functional, cell-based
# Conditions: A549, 72 h, pooled result: one value given for 8 cell lines, strains, targets or settings
structure (smiles),measurement,value
c1ccc2c(C3(c4c[nH]c5ccccc45)CCCCC3)c[nH]c2c1,IC50,18.7 µM
